Here are results for 18 compounds from US20240217967A1, “INDOLINE DERIVATIVES AS DDRS INHIBITORS” (CHIESI FARMACEUTICI S.P.A., priority 2021, published 2024).

Test [1] addresses T1, DDR1 (Homo sapiens, UniProt Q08345). In words: DDR1 LanthaScreen Europium Kinase Binding assay. The conditions noted are these: binding affinity; IC50 converted in Ki using Cheng-Prusoff; read-out: Ki DDR1. Here is the method:
(§1) DDR1 and DDR2 binding assays were performed using Life Technologies LanthaScreen™ Europium Kinase Binding assay. The compounds were incubated with 5 nM DDR1 (Carna Biosciences) or 5 nM DDR2 (Life Technologies) for 1 hour at room temperature in white 384-well OptiPlate (PerkinElmer), containing 20 nM or 10 nM Kinase Tracer 178 respectively and 2 nM Europium labelled anti-GST antibody (Life Technologies) in assay buffer (50 mM HEPES pH 7.5, 10 mM MgCI2, 1 mM EGTA and 0.01% BRIJ35). The ratio of fluorescence emission 665 nm/615 nm after excitation at 340 nm was obtained using the Tecan Spark 20M plate reader. IC50 values were determined in GraphPad Prism 7.0 software, using 4 parameter model: log(inhibitor) vs. response. IC50 values were converted in Ki using the Cheng-Prusoff equation (Ki=IC50/(1+[Tracer]/Kd).
On the technique in general: Time-resolved FRET reads energy transfer from a long-lived donor to a nearby acceptor.

The target in another test is T2, DDR2 (Homo sapiens, UniProt Q16832).
T2 sequence (Q16832 22-855): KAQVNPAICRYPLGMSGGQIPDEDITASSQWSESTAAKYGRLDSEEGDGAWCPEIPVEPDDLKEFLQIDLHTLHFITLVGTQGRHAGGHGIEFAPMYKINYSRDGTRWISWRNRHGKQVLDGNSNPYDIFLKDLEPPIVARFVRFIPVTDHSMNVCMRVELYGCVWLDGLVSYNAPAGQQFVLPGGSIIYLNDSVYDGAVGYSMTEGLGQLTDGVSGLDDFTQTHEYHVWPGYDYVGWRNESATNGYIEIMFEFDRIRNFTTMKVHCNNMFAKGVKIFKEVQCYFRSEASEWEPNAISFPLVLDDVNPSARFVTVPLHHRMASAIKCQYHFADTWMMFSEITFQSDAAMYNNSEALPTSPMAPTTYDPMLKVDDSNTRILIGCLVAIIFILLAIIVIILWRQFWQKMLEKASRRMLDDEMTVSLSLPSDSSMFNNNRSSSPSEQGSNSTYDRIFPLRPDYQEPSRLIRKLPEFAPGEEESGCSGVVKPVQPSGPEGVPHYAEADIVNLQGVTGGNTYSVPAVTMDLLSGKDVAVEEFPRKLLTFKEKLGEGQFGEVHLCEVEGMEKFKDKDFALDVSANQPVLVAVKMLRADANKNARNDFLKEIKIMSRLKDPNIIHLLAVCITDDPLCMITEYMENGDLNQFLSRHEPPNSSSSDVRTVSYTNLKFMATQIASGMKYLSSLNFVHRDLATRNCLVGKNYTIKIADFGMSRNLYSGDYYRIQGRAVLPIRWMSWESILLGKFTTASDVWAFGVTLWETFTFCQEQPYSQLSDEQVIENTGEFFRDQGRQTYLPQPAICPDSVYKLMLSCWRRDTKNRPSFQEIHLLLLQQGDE
In words: DDR2 LanthaScreen Europium Kinase Binding assay. To be noted: binding affinity; IC50 converted in Ki using Cheng-Prusoff; read-out: Ki DDR2. Here is the method: as §1

Test [2] concerns the target T1, DDR1. The test is described as follows: DDR1 cell based assay (PathHunter U2OS DDR1, collagen II stimulation). To be noted: U2OS-DDR1 cells, bovine Type II Collagen stimulation. Here is the method:
The inhibition of DDR1 receptor activation by compounds was evaluated by PathHunter® U2OS DDR1 assay (Eurofins DiscoverX), according to the manufacturer's instructions. Briefly, U2OS-DDR1 cells were seeded in white 384-well plates at a density of 5000 cells/well and incubated for 2 hours at 37° C. and 5% CO2. Cells were then treated with compounds at different concentrations and incubated for 30 minutes, before stimulation with bovine Type II Collagen 20 μg/ml and incubation overnight at 37° C. and 5% CO2. PathHunter Detection Reagents were prepared according to the protocol provided by DiscoverX and 20 μl/well of this mix were added to each well. After incubating the plates for 1 hour at room temperature in the dark, luminescence signal was acquired with a plate reader. Raw data were normalized to vehicle control (0% for normalization) and positive control (100% for normalization; cells treated with 20 μg/ml collagen II) and IC50 parameters were calculated in GraphPad Prism 8.0 software, using sigmoidal dose-response curve fitting with variable slope.

T1 sequence (Q08345 19-913): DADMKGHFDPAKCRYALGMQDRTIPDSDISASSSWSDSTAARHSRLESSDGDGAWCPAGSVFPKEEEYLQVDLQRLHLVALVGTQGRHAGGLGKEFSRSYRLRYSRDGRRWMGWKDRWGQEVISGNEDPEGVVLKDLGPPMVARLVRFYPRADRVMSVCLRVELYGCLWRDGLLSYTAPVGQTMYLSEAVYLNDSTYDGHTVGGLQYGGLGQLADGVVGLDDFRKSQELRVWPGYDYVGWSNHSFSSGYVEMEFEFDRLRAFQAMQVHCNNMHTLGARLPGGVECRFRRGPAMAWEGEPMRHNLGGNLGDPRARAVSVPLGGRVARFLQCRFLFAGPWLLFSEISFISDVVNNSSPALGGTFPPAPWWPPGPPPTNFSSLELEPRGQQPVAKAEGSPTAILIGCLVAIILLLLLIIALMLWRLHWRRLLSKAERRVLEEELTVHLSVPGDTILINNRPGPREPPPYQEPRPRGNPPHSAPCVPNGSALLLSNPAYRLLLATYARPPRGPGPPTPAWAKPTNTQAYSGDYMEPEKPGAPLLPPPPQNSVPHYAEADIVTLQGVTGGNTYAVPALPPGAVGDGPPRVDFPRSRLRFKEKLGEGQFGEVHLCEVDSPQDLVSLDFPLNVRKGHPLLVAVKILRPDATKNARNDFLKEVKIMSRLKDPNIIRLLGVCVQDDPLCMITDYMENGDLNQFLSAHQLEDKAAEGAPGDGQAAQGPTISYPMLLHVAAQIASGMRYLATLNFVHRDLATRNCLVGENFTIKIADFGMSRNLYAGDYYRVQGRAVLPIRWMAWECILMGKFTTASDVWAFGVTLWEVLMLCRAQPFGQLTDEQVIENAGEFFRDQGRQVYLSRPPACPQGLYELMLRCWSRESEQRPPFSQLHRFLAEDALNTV

As for `CN(C)Cc1cc(NC(=O)c2ccc3c(c2)N(Cc2cnc4cnccn24)CC3)cc(C(F)(F)F)c1` [Example 51, N-(3-((dimethylamino)methyl)-5-(trifluoromethyl)phenyl)-1-(imidazo[1,2-a]pyrazin-3-ylmethyl)indoline-6-carboxamide], the Ki at DDR1 [1] and at DDR2 was < 25 nM each time. Further, the IC50 at DDR1 [2] was in the range of 25 to 50 nM.
As for `O=C(Nc1cc(OCCN2CCCC2)cc(C(F)(F)F)c1)c1ccc2c(c1)N(Cc1cnc3cnccn13)CC2` [Example 52, 1-(imidazo[1,2-a]pyrazin-3-ylmethyl)-N-(3-(2-(pyrrolidin-1-yl)ethoxy)-5-(trifluoromethyl)phenyl)indoline-6-carboxamide], the Ki at DDR1 [1] and on DDR2 was < 25 nM in each case. Further, at DDR1 [2], the 50% inhibitory concentration (IC50) lay in the range of 50 to 80 nM.
As for `O=C(Nc1cc(OCCN2CCOCC2)cc(C(F)(F)F)c1)c1ccc2c(c1)N(Cc1cnc3cnccn13)CC2` [Example 53, 1-(imidazo[1,2-a]pyrazin-3-ylmethyl)-N-(3-(2-morpholinoethoxy)-5-(trifluoromethyl)phenyl)indoline-6-carboxamide], the Ki at DDR1 [1] and at DDR2 was < 25 nM each time. The concentration for half-maximal inhibition (IC50) at DDR1 [2] lay within 50 to 80 nM.
Consider `CN1CCC(Oc2ccc(NC(=O)c3ccc4c(c3)N(Cc3cnc5cnccn35)CC4)cc2C(F)(F)F)CC1` [Example 54, 1-(imidazo[1,2-a]pyrazin-3-ylmethyl)-N-(4-((1-methylpiperidin-4-yl)oxy)-3-(trifluoromethyl)phenyl)indoline-6-carboxamide], for which the Ki at DDR1 [1] and on DDR2 was < 25 nM each time. This compound also yielded an IC50 against DDR1 [2] of 50 to 80 nM.
As for `O=C(Nc1cccc(OC(F)(F)F)c1)c1ccc2c(c1)N(Cc1cnc3ccccn13)CC2` [Example 55, 1-(imidazo[1,2-a]pyridin-3-ylmethyl)-N-(3-(trifluoromethoxy)phenyl)indoline-6-carboxamide], the Ki on DDR1 [1] was < 25 nM; on DDR2, 25 to 50 nM. At DDR1 [2], the 50% inhibitory concentration (IC50) is < 25 nM.
With `O=C(Nc1cc(F)cc(OC(F)(F)F)c1)c1ccc2c(c1)N(Cc1cnc3ccccn13)CC2` [Example 56, N-(3-fluoro-5-(trifluoromethoxy)phenyl)-1-(imidazo[1,2-a]pyridin-3-ylmethyl)indoline-6-carboxamide], the inhibition constant (Ki) on DDR1 [1] and at DDR2 was < 25 nM throughout. The compound further returned a half-maximal inhibitory concentration (IC50) against DDR1 [2] of 25 to 50 nM.
Regarding `O=C(Nc1cccc(C(F)(F)F)c1)c1ccc2c(c1)N(Cc1cnc3ccccn13)CC2` [Example 57, 1-(imidazo[1,2-a]pyridin-3-ylmethyl)-N-(3-(trifluoromethyl)phenyl)indoline-6-carboxamide], the inhibition constant (Ki) at DDR1 [1] is 25 to 50 nM; at DDR2, 50 to 80 nM. On DDR1 [2], this compound came in with an IC50 of 25 to 50 nM.
On to `CC(C)(c1cc(NC(=O)c2ccc3c(c2)N(Cc2cnc4ccccn24)CC3)no1)C(F)(F)F` [Example 58, 1-(imidazo[1,2-a]pyridin-3-ylmethyl)-N-(5-(1,1,1-trifluoro-2-methylpropan-2-yl)isoxazol-3-yl)indoline-6-carboxamide], for which the figures for the Ki on DDR1 [1] and on DDR2 were 25 to 50 nM and < 25 nM, respectively. Moreover, the half-inhibitory concentration (IC50) against DDR1 [2] was < 25 nM.
Turning to `O=C(Nc1cccc(C(F)(F)F)c1)c1ccc2c(c1)N(Cc1ccc3[nH]cnc3c1)CC2` [Example 60, 1-((1H-benzo[d]imidazol-5-yl)methyl)-N-(3-(trifluoromethyl)phenyl)indoline-6-carboxamide], the inhibitory constant (Ki) is < 25 nM on DDR1 [1] and 50 to 80 nM at DDR2. Also, the IC50 against DDR1 [2] is 50 to 80 nM.
For `O=C(Nc1cccc(OC(F)(F)F)c1)c1ccc2c(c1)N(Cc1ccc3[nH]cnc3c1)CC2` [Example 61, 1-((1H-benzo[d]imidazol-5-yl)methyl)-N-(3-(trifluoromethoxy)phenyl)indoline-6-carboxamide], the inhibition constant (Ki) at DDR1 [1] and at DDR2 was 25 to 50 nM in each case. Moreover, the IC50 against DDR1 [2] was 50 to 80 nM.
For `O=C(Nc1cc(F)cc(C(F)(F)F)c1)c1ccc2c(c1)N(Cc1ccc3[nH]cnc3c1)CC2` [Example 62, 1-((1H-benzo[d]imidazol-5-yl)methyl)-N-(3-fluoro-5-(trifluoromethyl)phenyl)indoline-6-carboxamide], the Ki on DDR1 [1] was in the range of 25 to 50 nM; at DDR2, 50 to 80 nM. At DDR1 [2], this compound displayed a half-inhibitory concentration (IC50) of 50 to 80 nM.
`O=C(Nc1cccc(C(F)(F)F)c1)c1ccc2c(c1)N(Cc1cnc3ccnn3c1)CC2` [Example 63, 1-(pyrazolo[1,5-a]pyrimidin-6-ylmethyl)-N-(3-(trifluoromethyl)phenyl)indoline-6-carboxamide]: the Ki at DDR1 [1] and on DDR2 was < 25 nM each time. Further, on DDR1 [2], the IC50 lay in the range of 50 to 80 nM.
As for `Cc1n[nH]c2ncc(CN3CCc4ccc(C(=O)Nc5cc(CN6CCCC6)cc(C(F)(F)F)c5)cc43)cc12` [Example 66, 1-((3-methyl-1H-pyrazolo[3,4-b]pyridin-5-yl)methyl)-N-(3-(pyrrolidin-1-ylmethyl)-5-(trifluoromethyl)phenyl)indoline-6-carboxamide], the inhibitory constant (Ki) on DDR1 [1] and at DDR2 was < 25 nM each time. Further, the half-maximal inhibitory concentration (IC50) against DDR1 [2] was < 25 nM.
Take `Cc1n[nH]c2ncc(CN3CCc4ccc(C(=O)Nc5cc(C(C)(C)C)on5)cc43)cc12` [Example 67, N-(5-(tert-butyl)isoxazol-3-yl)-1-((3-methyl-1H-pyrazolo[3,4-b]pyridin-5-yl)methyl)indoline-6-carboxamide]: the inhibition constant (Ki) on DDR1 [1] and at DDR2 was < 25 nM each time. Besides, the IC50 at DDR1 [2] was < 25 nM.
Take `Cc1n[nH]c2ncc(CN3CCc4ccc(C(=O)Nc5cc(CN6CCN(C)CC6)cc(C(F)(F)F)c5)cc43)cc12` [Example 68, 1-((3-methyl-1H-pyrazolo[3,4-b]pyridin-5-yl)methyl)-N-(3-((4-methylpiperazin-1-yl)methyl)-5-(trifluoromethyl)phenyl)indoline-6-carboxamide]: the Ki on DDR1 [1] and on DDR2 was < 25 nM each time. The half-inhibitory concentration (IC50) on DDR1 [2] was < 25 nM.
As for `Cc1n[nH]c2ncc(CN3CCc4ccc(C(=O)Nc5ccc(CN6CCCC6)c(C(F)(F)F)c5)cc43)cc12` [Example 70, 1-((3-methyl-1H-pyrazolo[3,4-b]pyridin-5-yl)methyl)-N-(4-(pyrrolidin-1-ylmethyl)-3-(trifluoromethyl)phenyl)indoline-6-carboxamide], the inhibition constant Ki at DDR1 [1] and at DDR2 was < 25 nM each time. Besides, the IC50 at DDR1 [2] was in the range of 25 to 50 nM.
Regarding `Cc1n[nH]c2ncc(CN3CCc4ccc(C(=O)Nc5cncc(C(F)(F)F)c5)cc43)cc12` [Example 71, 1-((3-methyl-1H-pyrazolo[3,4-b]pyridin-5-yl)methyl)-N-(5-(trifluoromethyl)pyridin-3-yl)indoline-6-carboxamide], the Ki at DDR1 [1] and on DDR2 was < 25 nM each time. Further, on DDR1 [2], the half-maximal inhibitory concentration (IC50) was < 25 nM.
For the compound `Cc1n[nH]c2ncc(CN3CCc4ccc(C(=O)Nc5cc(CN6CC[C@@H](N(C)C)C6)cc(C(F)(F)F)c5)cc43)cc12` [Example 72, (R)-N-(3-((3-(dimethylamino)pyrrolidin-1-yl)methyl)-5-(trifluoromethyl)phenyl)-1-((3-methyl-1H-pyrazolo[3,4-b]pyridin-5-yl)methyl)indoline-6-carboxamide], the Ki on DDR1 [1] and on DDR2 was < 25 nM in each case. For the same compound, the 50% inhibitory concentration (IC50) at DDR1 [2] was < 25 nM.

As usually defined, the Ki is a measure of affinity in units of concentration, obtained from inhibition or displacement. The term IC50 denotes the point on the concentration scale where inhibition reaches its midpoint.
